In brackets after ≈: the same amount, converted by molar mass. Activity calls are given as the source filed them. The rule behind the calls is not given here.
Legend:
Bacillus subtilis [1] = assay: Antibacterial activity against Bacillus subtilis MTCC 441 assessed as growth inhibition at 750 ug/mL after 48 hr by agar diffusion method; type: functional; settings: MTCC 441, 48 h, read-out: DIZ
Bacillus pumilus [2] = assay: Antibacterial activity against Bacillus pumilus MTCC 1456 assessed as growth inhibition after 24 hr by tube dilution method; type: functional; settings: MTCC 1456, 24 h
Bacillus pumilus [3] = assay: Antibacterial activity against Bacillus pumilus MTCC 1456 assessed as growth inhibition at 750 ug/mL after 48 hr by agar diffusion method; type: functional; settings: MTCC 1456, 48 h, read-out: DIZ
Penicillium chrysogenum [4] = assay: Antifungal activity against Penicillium chrysogenum MTCC 161 assessed as growth inhibition at 250 ug/mL after 48 hr by agar diffusion method; type: functional; settings: MTCC 161, 48 h, read-out: DIZ
Pseudomonas aeruginosa [5] = assay: Antibacterial activity against Pseudomonas aeruginosa MTCC 424 assessed as growth inhibition at 1250 ug/mL after 48 hr by agar diffusion method; type: functional; settings: MTCC 424, 48 h, read-out: DIZ
Escherichia coli [6] = assay: Antibacterial activity against Escherichia coli MTCC 1573 assessed as growth inhibition at 750 ug/mL after 48 hr by agar diffusion method; type: functional; settings: MTCC 1573, 48 h, read-out: DIZ
Bacillus pumilus [7] = assay: Antibacterial activity against Bacillus pumilus MTCC 1456 assessed as growth inhibition at 100 ug/mL after 48 hr by agar diffusion method; type: functional; settings: MTCC 1456, 48 h, read-out: DIZ
Escherichia coli [8] = assay: Antibacterial activity against Escherichia coli MTCC 1573 assessed as growth inhibition at 250 ug/mL after 48 hr by agar diffusion method; type: functional; settings: MTCC 1573, 48 h, read-out: DIZ
Escherichia coli [9] = assay: Antibacterial activity against Escherichia coli MTCC 1573 assessed as growth inhibition at 1250 ug/mL after 48 hr by agar diffusion method; type: functional; settings: MTCC 1573, 48 h, read-out: DIZ
Aspergillus niger [10] = assay: Antifungal activity against Aspergillus niger MTCC 2546 assessed as growth inhibition at 250 ug/mL after 48 hr by agar diffusion method; type: functional
Escherichia coli [11] = assay: Antibacterial activity against Escherichia coli MTCC 1573 assessed as growth inhibition after 24 hr by tube dilution method; type: functional; settings: MTCC 1573, 24 h
Pseudomonas fluorescens [12] = assay: Antibacterial activity against Pseudomonas fluorescens MTCC 2421 assessed as growth inhibition at 1250 ug/mL after 48 hr by agar diffusion method; type: functional; settings: MTCC 2421, 48 h, read-out: DIZ
Penicillium chrysogenum [13] = assay: Antifungal activity against Penicillium chrysogenum MTCC 161 assessed as growth inhibition after 24 hr by tube dilution method; type: functional; settings: MTCC 161, 24 h
Escherichia coli [14] = assay: Antibacterial activity against Escherichia coli MTCC 1573 assessed as growth inhibition at 1000 ug/mL after 48 hr by agar diffusion method; type: functional; settings: MTCC 1573, 48 h, read-out: DIZ
Bacillus subtilis [15] = assay: Antibacterial activity against Bacillus subtilis MTCC 441 assessed as growth inhibition at 100 ug/mL after 48 hr by agar diffusion method; type: functional; settings: MTCC 441, 48 h, read-out: DIZ
Bacillus pumilus [16] = assay: Antibacterial activity against Bacillus pumilus MTCC 1456 assessed as growth inhibition at 1250 ug/mL after 48 hr by agar diffusion method; type: functional; settings: MTCC 1456, 48 h, read-out: DIZ
Pseudomonas fluorescens [17] = assay: Antibacterial activity against Pseudomonas fluorescens MTCC 2421 assessed as growth inhibition at 100 ug/mL after 48 hr by agar diffusion method; type: functional; settings: MTCC 2421, 48 h, read-out: DIZ
Micrococcus luteus [18] = assay: Antibacterial activity against Micrococcus luteus MTCC 1538 assessed as growth inhibition at 100 ug/mL after 48 hr by agar diffusion method; type: functional
Pseudomonas aeruginosa [19] = assay: Antibacterial activity against Pseudomonas aeruginosa MTCC 424 assessed as growth inhibition at 750 ug/mL after 48 hr by agar diffusion method; type: functional; settings: MTCC 424, 48 h, read-out: DIZ
Staphylococcus aureus [20] = assay: Antibacterial activity against Staphylococcus aureus MTCC 1430 assessed as growth inhibition at 500 ug/mL after 48 hr by agar diffusion method; type: functional; settings: MTCC 1430, 48 h, read-out: DIZ
Penicillium chrysogenum [21] = assay: Antifungal activity against Penicillium chrysogenum MTCC 161 assessed as growth inhibition at 500 ug/mL after 48 hr by agar diffusion method; type: functional; settings: MTCC 161, 48 h, read-out: DIZ
Staphylococcus aureus [22] = assay: Antibacterial activity against Staphylococcus aureus MTCC 1430 assessed as growth inhibition at 1000 ug/mL after 48 hr by agar diffusion method; type: functional; settings: MTCC 1430, 48 h, read-out: DIZ
Pseudomonas fluorescens [23] = assay: Antibacterial activity against Pseudomonas fluorescens MTCC 2421 assessed as growth inhibition at 750 ug/mL after 48 hr by agar diffusion method; type: functional; settings: MTCC 2421, 48 h, read-out: DIZ
Bacillus subtilis [24] = assay: Antibacterial activity against Bacillus subtilis MTCC 441 assessed as growth inhibition after 24 hr by tube dilution method; type: functional; settings: MTCC 441, 24 h
Bacillus pumilus [25] = assay: Antibacterial activity against Bacillus pumilus MTCC 1456 assessed as growth inhibition at 1000 ug/mL after 48 hr by agar diffusion method; type: functional; settings: MTCC 1456, 48 h, read-out: DIZ
Micrococcus luteus [26] = assay: Antibacterial activity against Micrococcus luteus MTCC 1538 assessed as growth inhibition after 24 hr by tube dilution method; type: functional; settings: MTCC 1538, 24 h
Aspergillus niger [27] = assay: Antifungal activity against Aspergillus niger MTCC 2546 assessed as growth inhibition at 500 ug/mL after 48 hr by agar diffusion method; type: functional; settings: MTCC 2546, 48 h, read-out: DIZ
Staphylococcus aureus [28] = assay: Antibacterial activity against Staphylococcus aureus MTCC 1430 assessed as growth inhibition at 1250 ug/mL after 48 hr by agar diffusion method; type: functional; settings: MTCC 1430, 48 h, read-out: DIZ
Staphylococcus aureus [29] = assay: Antibacterial activity against Staphylococcus aureus MTCC 1430 assessed as growth inhibition at 250 ug/mL after 48 hr by agar diffusion method; type: functional; settings: MTCC 1430, 48 h, read-out: DIZ
Bacillus subtilis [30] = assay: Antibacterial activity against Bacillus subtilis MTCC 441 assessed as growth inhibition at 250 ug/mL after 48 hr by agar diffusion method; type: functional; settings: MTCC 441, 48 h, read-out: DIZ
Penicillium chrysogenum [31] = assay: Antifungal activity against Penicillium chrysogenum MTCC 161 assessed as growth inhibition at 1000 ug/mL after 48 hr by agar diffusion method; type: functional; settings: MTCC 161, 48 h, read-out: DIZ
Pseudomonas aeruginosa [32] = assay: Antibacterial activity against Pseudomonas aeruginosa MTCC 424 assessed as growth inhibition at 250 ug/mL after 48 hr by agar diffusion method; type: functional; settings: MTCC 424, 48 h, read-out: DIZ
Aspergillus niger [33] = assay: Antifungal activity against Aspergillus niger MTCC 2546 assessed as growth inhibition at 100 ug/mL after 48 hr by agar diffusion method; type: functional, organism-based
Staphylococcus aureus [34] = assay: Antibacterial activity against Staphylococcus aureus MTCC 1430 assessed as growth inhibition after 24 hr by tube dilution method; type: functional; settings: MTCC 1430, 24 h
Staphylococcus aureus [35] = assay: Antibacterial activity against Staphylococcus aureus MTCC 1430 assessed as growth inhibition at 750 ug/mL after 48 hr by agar diffusion method; type: functional; settings: MTCC 1430, 48 h, read-out: DIZ
Micrococcus luteus [36] = assay: Antibacterial activity against Micrococcus luteus MTCC 1538 assessed as growth inhibition at 250 ug/mL after 48 hr by agar diffusion method; type: functional
Bacillus pumilus [37] = assay: Antibacterial activity against Bacillus pumilus MTCC 1456 assessed as growth inhibition at 250 ug/mL after 48 hr by agar diffusion method; type: functional; settings: MTCC 1456, 48 h, read-out: DIZ
Pseudomonas fluorescens [38] = assay: Antibacterial activity against Pseudomonas fluorescens MTCC 2421 assessed as growth inhibition at 500 ug/mL after 48 hr by agar diffusion method; type: functional; settings: MTCC 2421, 48 h, read-out: DIZ
Micrococcus luteus [39] = assay: Antibacterial activity against Micrococcus luteus MTCC 1538 assessed as growth inhibition at 1000 ug/mL after 48 hr by agar diffusion method; type: functional; settings: MTCC 1538, 48 h, read-out: DIZ

| MIC (Bacillus pumilus [2]) | MIC (Escherichia coli [11]) | MIC (Penicillium chrysogenum [13]) | SMILES | zone of inhibition at 750 µg/mL (Bacillus subtilis [1]) | zone of inhibition at 750 µg/mL (Bacillus pumilus [3]) | zone of inhibition at 250 µg/mL (Penicillium chrysogenum [4]) | zone of inhibition at 1250 µg/mL (Pseudomonas aeruginosa [5]) | zone of inhibition at 750 µg/mL (Escherichia coli [6]) | zone of inhibition at 100 µg/mL (Bacillus pumilus [7]) | zone of inhibition at 250 µg/mL (Escherichia coli [8]) | zone of inhibition at 1250 µg/mL (Escherichia coli [9]) | zone of inhibition at 1250 µg/mL (Pseudomonas fluorescens [12]) | zone of inhibition at 1000 µg/mL (Escherichia coli [14]) | zone of inhibition at 100 µg/mL (Bacillus subtilis [15]) | zone of inhibition at 1250 µg/mL (Bacillus pumilus [16]) | zone of inhibition at 100 µg/mL (Pseudomonas fluorescens [17]) | growth inhibition (GI) (Micrococcus luteus [18]) | zone of inhibition at 750 µg/mL (Pseudomonas aeruginosa [19]) | zone of inhibition at 500 µg/mL (Staphylococcus aureus [20]) | zone of inhibition at 500 µg/mL (Penicillium chrysogenum [21]) | other results |
| --- | --- | --- | --- | --- | --- | --- | --- | --- | --- | --- | --- | --- | --- | --- | --- | --- | --- | --- | --- | --- | --- |
| 20 mg/L (≈ 48.2 µM) | 50 mg/L (≈ 121 µM) | 200 mg/L (≈ 482 µM) | O=C1CSC(c2cccc3ccccc23)N1c1nnc2c3ccccc3nc-2s1 (stereo not drawn) | 15 mm | 15 mm | 8 mm | 20 mm | 13 mm | 6 mm | 10 mm | 18 mm | 22 mm | 15 mm | 8 mm | 26 mm | 7 mm | inactive | 15 mm | 10 mm | 9 mm | growth inhibition (GI) (Aspergillus niger [10]): inactive; zone of inhibition at 1000 µg/mL (Staphylococcus aureus [22]): 14 mm; zone of inhibition at 750 µg/mL (Pseudomonas fluorescens [23]): 16 mm; MIC (Bacillus subtilis [24]): 40 mg/L (≈ 96.5 µM); zone of inhibition at 1000 µg/mL (Bacillus pumilus [25]): 20 mm; MIC (Micrococcus luteus [26]): 250 mg/L (≈ 603 µM); zone of inhibition at 500 µg/mL (Aspergillus niger [27]): 8 mm; zone of inhibition at 1250 µg/mL (Staphylococcus aureus [28]): 18 mm; zone of inhibition at 250 µg/mL (Staphylococcus aureus [29]): 8 mm; zone of inhibition at 250 µg/mL (Bacillus subtilis [30]): 10 mm; zone of inhibition at 1000 µg/mL (Penicillium chrysogenum [31]): 12 mm; zone of inhibition at 250 µg/mL (Pseudomonas aeruginosa [32]): 10 mm; growth inhibition (GI) (Aspergillus niger [33]): inactive; MIC (Staphylococcus aureus [34]): 200 mg/L (≈ 482 µM); zone of inhibition at 750 µg/mL (Staphylococcus aureus [35]): 12 mm; growth inhibition (GI) (Micrococcus luteus [36]): inactive; zone of inhibition at 250 µg/mL (Bacillus pumilus [37]): 8 mm; zone of inhibition at 500 µg/mL (Pseudomonas fluorescens [38]): 14 mm; zone of inhibition at 1000 µg/mL (Micrococcus luteus [39]): 14 mm |
| 50 mg/L (≈ 137 µM) | 40 mg/L (≈ 109 µM) | 150 mg/L (≈ 410 µM) | O=C1CSC(c2ccccn2)N1c1nnc2c3ccccc3nc-2s1 (stereo not drawn) | 13 mm | 17 mm | 9 mm | 22 mm | 15 mm | 8 mm | 9 mm | 22 mm | 20 mm | 18 mm | 8 mm | 21 mm | 7 mm | inactive | 15 mm | 9 mm | 12 mm | zone of inhibition at 250 µg/mL (Aspergillus niger [10]; MTCC 2546, 48 h, read-out: DIZ): 8 mm; zone of inhibition at 1000 µg/mL (Staphylococcus aureus [22]): 12 mm; zone of inhibition at 750 µg/mL (Pseudomonas fluorescens [23]): 15 mm; MIC (Bacillus subtilis [24]): 40 mg/L (≈ 109 µM); zone of inhibition at 1000 µg/mL (Bacillus pumilus [25]): 19 mm; MIC (Micrococcus luteus [26]): 250 mg/L (≈ 684 µM); zone of inhibition at 500 µg/mL (Aspergillus niger [27]): 11 mm; zone of inhibition at 1250 µg/mL (Staphylococcus aureus [28]): 15 mm; zone of inhibition at 250 µg/mL (Staphylococcus aureus [29]): 8 mm; zone of inhibition at 250 µg/mL (Bacillus subtilis [30]): 10 mm; zone of inhibition at 1000 µg/mL (Penicillium chrysogenum [31]): 15 mm; zone of inhibition at 250 µg/mL (Pseudomonas aeruginosa [32]): 9 mm; growth inhibition (GI) (Aspergillus niger [33]): inactive; MIC (Staphylococcus aureus [34]): 200 mg/L (≈ 547 µM); zone of inhibition at 750 µg/mL (Staphylococcus aureus [35]): 10 mm; zone of inhibition at 250 µg/mL (Micrococcus luteus [36]; MTCC 1538, 48 h, read-out: DIZ): 8 mm; zone of inhibition at 250 µg/mL (Bacillus pumilus [37]): 10 mm; zone of inhibition at 500 µg/mL (Pseudomonas fluorescens [38]): 13 mm; zone of inhibition at 1000 µg/mL (Micrococcus luteus [39]): 15 mm |

Reference: ChEMBL document CHEMBL3046001, “4-Thiazolidinone and 1-thia-3,4,9-triaza fluorene conjugates: synthesis, characterization and antimicrobial screening” (2013)
